The source of these data is US5401875A, “2-aminocarboxylic acids and their derivatives, processes for their preparation and their use as medicaments” (Godecke Aktiengesellschaft, priority 1988, dated 1995).

Where a name gives a salt, the structure may show the parent alone.

In assay [1] the target is protein kinase C. Briefly: C-kinase: inhibition of protein kinase C, incorporation of phosphorus-32 labelled phosphate in histone. Type of assay: biochemical, rat brain or chicken stomach smooth muscle. The settings on record: pH 7.5; 10 μM ATP; 5 nM PKC; 5 min at 30° C. The procedure:
The enzyme is purified from rat brain or smooth muscle (chicken stomach). Its activity is determined via the incorporation of phosphorus-32 labelled phosphate in histone. The reaction batch of 200 μL contains the following components: 50 mM HEPES-NaOH, pH 7.5, 5 mM MgCl2, 1 mM DTT, 4 μM free Ca^2+, 10 μM ATP, 1 μg phosphatidylserine, 0.2 μg 1,2-diolein, as well as 40 μg histone H-1. The batch is preincubated for 4 minutes at 30° C. and the reaction then started by addition of 5 nM PKC. After 5 minutes incubation at 30° C. the reaction is stopped with 10% TCA and the samples then filtered off. The phosphate incorporation is determined by means of Cerenkov counting in a scintillation counter.

The target of assay [2] is T1, cycloGMP-dependent kinase (Bos taurus, UniProt P00516).
T1 construct: The enzyme was purified from bovine lung; from tissue; host or cells: bovine lung
T1 sequence (P00516 1-671): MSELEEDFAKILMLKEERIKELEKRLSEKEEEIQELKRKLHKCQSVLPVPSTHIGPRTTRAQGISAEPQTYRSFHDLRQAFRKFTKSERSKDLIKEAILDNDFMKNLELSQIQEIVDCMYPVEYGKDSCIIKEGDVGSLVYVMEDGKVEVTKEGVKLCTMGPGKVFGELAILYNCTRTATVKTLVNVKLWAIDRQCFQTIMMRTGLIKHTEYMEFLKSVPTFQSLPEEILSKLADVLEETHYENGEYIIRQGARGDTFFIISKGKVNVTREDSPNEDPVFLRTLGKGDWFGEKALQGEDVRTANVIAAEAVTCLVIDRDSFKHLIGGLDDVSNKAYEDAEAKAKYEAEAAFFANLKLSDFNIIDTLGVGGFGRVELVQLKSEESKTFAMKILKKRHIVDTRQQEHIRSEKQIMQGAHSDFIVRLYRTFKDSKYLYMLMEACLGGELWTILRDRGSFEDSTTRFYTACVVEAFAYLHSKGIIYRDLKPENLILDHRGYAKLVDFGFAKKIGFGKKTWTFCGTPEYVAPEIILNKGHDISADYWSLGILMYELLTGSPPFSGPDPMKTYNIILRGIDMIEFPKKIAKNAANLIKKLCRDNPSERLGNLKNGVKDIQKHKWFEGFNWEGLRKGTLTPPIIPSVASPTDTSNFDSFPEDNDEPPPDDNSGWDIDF
Briefly: G-kinase: inhibition of cyclic GMP-dependent kinase, phosphorus-32 incorporation into histone. Format: biochemical, bovine. The settings on record: pH 7.4; 10 μM ATP; 10 μM cGMP; 2.5 nM G-kinase. The procedure: The enzyme was purified from bovine lung and its activity determined via the incorporation of phosphorus 32-labelled phosphate into histone. In the test batch are contained the following components: 20 mM Tris-HCl, pH 7.4, 5 mM MgCl2, 1 mM DTT, 10 μM ATP, 10 μM cGMP, 40 μg BSA, 2% glycerol, as well as 10 μg histone II-A. The starting of the reaction takes place by addition of 2.5 nM G-kinase. Otherwise, the carrying out of the test takes place as in the case of C-kinase.

Assay [3] deals with T2, myosine light chain kinase (Gallus gallus, UniProt P11799).
T2 construct: Not only the enzyme but also the substrate (MLC) are purified from chicken stomach; from tissue; host or cells: chicken stomach
Description: MLC-kinase: inhibition of myosine light chain kinase, phosphorus-32 incorporation into MLC. Type of assay: biochemical, chicken. Conditions: pH 7.2; 250 μM ATP; 25 μM MLC; about 1 nM MLC kinase. The procedure:
Not only the enzyme but also the substrate (MLC) are purified from chicken stomach. The activity measurement also takes place via the incorporation of phosphorus-32 labelled phosphate. The reaction batch of 200 μL contains the following components: 50 mM MOPS-NaOH, pH 7.2, 5 mM MgCl2, 100 μM CaCl2, 100 nM calmodulin, 1 mM DTT, 250 μM ATP, as well as 25 μM MLC. The reaction is started by addition of about 1 nM MLC kinase; otherwise, the carrying out of the test takes place as in the case of C-kinase.

For assay [4], the target named is T3, cycloAMP-dependent kinase (Homo sapiens, UniProt P17612).
T3 construct: purchased
Description: A-kinase: inhibition of cyclic AMP-dependent kinase (commercially available catalytic subunit), phosphorus-32 incorporation into histone. Format: biochemical. The settings on record: pH 7.5; 40 μM ATP; histone-H-2B; read-out: Inhibition of cAMP-kinase, IC50-values. The procedure:
The measurement of the activity takes place with the commercially available catalytic subunit of the enzyme. The incorporation of phosphorus-32 labelled phosphate into histone is thereby measured. The reaction batch of 200 μL contains the following components: 50 mM PIPES-NaOH, pH 7.5, 10 mM MgCl2, 1 mM DTT, 40 μM ATP, as well as 50 μg histone-H-2B. The carrying out of the test takes place as in the case of C-kinase.

T2 sequence (P11799 935-1906 limits assumed): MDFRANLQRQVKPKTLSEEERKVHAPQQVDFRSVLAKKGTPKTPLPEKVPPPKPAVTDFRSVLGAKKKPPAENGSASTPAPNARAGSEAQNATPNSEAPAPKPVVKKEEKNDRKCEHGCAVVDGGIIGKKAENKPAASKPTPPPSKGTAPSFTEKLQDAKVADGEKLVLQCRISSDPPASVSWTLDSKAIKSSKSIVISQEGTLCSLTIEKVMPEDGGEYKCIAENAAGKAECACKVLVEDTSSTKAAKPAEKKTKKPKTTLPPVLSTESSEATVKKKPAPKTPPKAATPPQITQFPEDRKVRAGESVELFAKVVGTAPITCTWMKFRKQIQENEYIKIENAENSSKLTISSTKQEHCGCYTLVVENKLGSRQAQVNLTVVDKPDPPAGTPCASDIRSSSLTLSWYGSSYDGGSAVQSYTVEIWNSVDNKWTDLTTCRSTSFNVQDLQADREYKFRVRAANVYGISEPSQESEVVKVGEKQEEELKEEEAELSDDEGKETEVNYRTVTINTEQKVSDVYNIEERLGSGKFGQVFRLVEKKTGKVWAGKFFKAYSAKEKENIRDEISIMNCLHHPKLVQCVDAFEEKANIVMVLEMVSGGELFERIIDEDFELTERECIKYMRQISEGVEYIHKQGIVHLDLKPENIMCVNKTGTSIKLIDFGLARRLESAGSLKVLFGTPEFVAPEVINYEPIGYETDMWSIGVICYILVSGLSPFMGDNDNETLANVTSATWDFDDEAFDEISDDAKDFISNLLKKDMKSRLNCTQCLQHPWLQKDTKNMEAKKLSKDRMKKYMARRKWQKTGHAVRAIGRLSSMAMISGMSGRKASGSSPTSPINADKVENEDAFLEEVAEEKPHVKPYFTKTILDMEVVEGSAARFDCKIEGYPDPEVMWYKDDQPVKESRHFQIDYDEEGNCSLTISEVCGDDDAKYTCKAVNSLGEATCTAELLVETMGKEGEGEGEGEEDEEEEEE

Consider `CCCCCCCCCCCCCCCCCCOCC(CN(C)C)OC(C)=O` (racemic) [A, (±)1-dimethylamino-3-octadecyloxy-2-propyl acetate hydrochloride], for which the IC50 in assay [1] was 5 µM; in assay [2] it was > 100 µM; in assay [3], > 100 µM; in assay [4] it was > 100 µM.
Regarding `CCCCCCCCCCCCCCCCCCOCC(O)CN(C)C(CO)C(=O)O` (stereo not drawn) [Example 1, 2-[N-Methyl-N-(3-octadecyloxy-2-hydroxypropyl)]-amino-3-hydroxypropionic acid hydrochloride], the 50% inhibitory concentration (IC50) in assay [1] was 2.5 µM; in assay [2], > 100 µM; in assay [3] it was > 100 µM; in assay [4], > 100 µM.
Consider `CCCCCCCCCCOCC(CN1CCC(CN)(c2ccccc2)CC1)OCCCCCCCCCC` (stereo not drawn) [B], for which the IC50 in assay [1] was 7 µM; in assay [2], 28 µM; in assay [3], 5.1 µM; in assay [4], 29 µM.

A word on the IC50: it is the concentration needed to halve the response being measured.
